Data as given in patent US4436751A, “Nitrobenzyl monates antibacterial compounds” (Beecham Group Limited, priority 1980, dated 1984).
Converted amounts (≈) assume the structure as drawn. Read-outs that look alike come from different tables or passages of the source.

How the values were obtained:
Assay type in all cases: cell-based
[1] = system: M. suipneumoniae PW/C/210; assay: Anti-mycoplasmal MIC in vitro, Friis broth agarose (Table 1); settings: Mesomycoplasma hyopneumoniae, 144 h
M. bovis RCTC 10131 = assay: microbe, parasite or virus in culture; settings: RCTC10131, 144 h
M. suipneumoniae OCD 1 = assay: Anti-mycoplasmal MIC in vitro, Friis broth agarose (Table 1); settings: Mesomycoplasma hyopneumoniae, OCD1, 144 h
M. pneumoniae ATCC 15492 = assay: as above; settings: Mycoplasmoides pneumoniae, ATCC15492, 144 h
[2] = system: M. suipneumoniae ATCC 25095; assay: as above; settings: Mesomycoplasma hyopneumoniae, ATCC25095, 144 h
M. suipneumoniae HR(2) = assay: as above; settings: Mesomycoplasma hyopneumoniae, 144 h
[3] = system: M. suipneumoniae NCTC 10110; assay: as above; settings: Mesomycoplasma hyopneumoniae, NCTC10110, 144 h
E. Coli E1 = assay: Veterinary bacteria MIC, Diagnostic Sensitivity Test Agar (Table 2); settings: Escherichia coli
Procedure: The values were determined using a two fold serial dilutions in Diagnostic Sensitivity Test Agar with an inoculum of 10^4 organisms and incubation for 18 hours at 37° C.

M. hyorhinis ATCC 25021 = assay: Anti-mycoplasmal MIC in vitro, Friis broth agarose (Table 1); settings: Mesomycoplasma hyorhinis, ATCC25021, 144 h
E. Coli NCTC 10418 = assay: Human bacteria MIC, nutrient agar with chocolated horse blood (Table 3); settings: Escherichia coli
Procedure: (§1) The values were determined by serial dilutions in nutrient agar with 5% chocolated horse blood after incubations for 18 hours at 37° C.

Staph. aureus Russell = assay: as above; settings: Staphylococcus aureus
Procedure: as §1

Bacillus subtilis 6633 = assay: as above
Procedure: as §1

P. mirabilis 889 = assay: as above
Procedure: as §1

[4] = system: Corynebacterium xerosis 9755; assay: as above
Procedure: as §1

[5] = system: Haemophilus influenzae Q1; assay: as above
Procedure: as §1

[6] = system: Ps. aeruginosa NCTC 10662; assay: as above; settings: Pseudomonas aeruginosa
Procedure: as §1

K. aerogenes A = assay: as above; settings: Klebsiella aerogenes
Procedure: as §1

Staph. aureus W2827 = assay: as above; settings: Staphylococcus aureus
Procedure: as §1

Sarcina lutea 8340 = assay: as above
Procedure: as §1

Strep. pneumoniae CN33 = assay: as above; settings: Streptococcus pneumoniae
Procedure: as §1

[7] = system: Strep. pyogenes R80/421-A; assay: as above; settings: Streptococcus pyogenes
Procedure: as §1

E. coli ESS = assay: as above; settings: Escherichia coli
Procedure: as §1

Staph. aureus Oxford = assay: as above; settings: Staphylococcus aureus
Procedure: as §1

[8] = system: Pasteurella multocida 1633; assay: as above
Procedure: as §1

Strep. faecalis 1 = assay: as above
Procedure: as §1

[9] = system: M. hyosynoviae ATOC 25591; assay: Anti-mycoplasmal MIC in vitro, Friis broth agarose (Table 1); settings: 144 h
M. suipneumoniae JF 435 = assay: as above; settings: Mesomycoplasma hyopneumoniae, JF435, 144 h
[10] = system: Neisseria catarrhalis 1502; assay: Human bacteria MIC, nutrient agar with chocolated horse blood (Table 3)
Procedure: as §1

[11] = M. pneumoniae ATCC 15492, in vitro, 6 days 37° C., read-out: MIC
[12] = M. suipneumoniae HR(2), in vitro, 6 days 37° C., read-out: MIC
[13] = E. Coli E1, DST Agar, 10^4 organisms, 18 hours 37° C., read-out: MIC
[14] = NCTC10418, E. coli NCTC 10418, nutrient agar 5% chocolated horse blood, 18 hours 37° C., read-out: MIC
[15] = Staph. aureus Russell, nutrient agar 5% chocolated horse blood, 18 hours 37° C., read-out: MIC
[16] = Bacillus subtilis 6633, nutrient agar 5% chocolated horse blood, 18 hours 37° C., read-out: MIC
[17] = Proteus mirabilis, P. mirabilis 889, nutrient agar 5% chocolated horse blood, 18 hours 37° C., read-out: MIC
[18] = Corynebacterium xerosis 9755, nutrient agar 5% chocolated horse blood, 18 hours 37° C., read-out: MIC
[19] = Haemophilus influenzae Q1, nutrient agar 5% chocolated horse blood, 18 hours 37° C., read-out: MIC
[20] = NCTC10662, Ps. aeruginosa NCTC 10662, nutrient agar 5% chocolated horse blood, 18 hours 37° C., read-out: MIC
[21] = K. aerogenes A, nutrient agar 5% chocolated horse blood, 18 hours 37° C., read-out: MIC
[22] = Staph. aureus W2827, nutrient agar 5% chocolated horse blood, 18 hours 37° C., read-out: MIC
[23] = Micrococcus luteus, Sarcina lutea 8340, nutrient agar 5% chocolated horse blood, 18 hours 37° C., read-out: MIC
[24] = Strep. pneumoniae CN33, nutrient agar 5% chocolated horse blood, 18 hours 37° C., read-out: MIC
[25] = E. coli ESS, nutrient agar 5% chocolated horse blood, 18 hours 37° C., read-out: MIC
[26] = Staph. aureus Oxford, nutrient agar 5% chocolated horse blood, 18 hours 37° C., read-out: MIC
[27] = Pasteurella multocida 1633, nutrient agar 5% chocolated horse blood, 18 hours 37° C., read-out: MIC
[28] = Enterococcus faecalis, Strep. faecalis 1, nutrient agar 5% chocolated horse blood, 18 hours 37° C., read-out: MIC
[29] = M. suipneumoniae JF 435, in vitro, 6 days 37° C., read-out: MIC

Work on `C/C(=C\C(=O)OCc1ccc([N+](=O)[O-])cc1)CC1OCC(CC2OC2C(C)C(C)O)C(O)C1O` (centres unmarked) [Example 1, p-nitrobenzyl monate A] yielded an MIC [1] of 0.05 µg/mL (≈ 0.104 µM), an MIC (M. bovis RCTC 10131) of less than 0.01 µg/mL and an MIC (M. suipneumoniae OCD 1; M. suipneumoniae OCD 1, in vitro, 6 days 37° C., read-out: MIC) of 0.1 µg/mL (≈ 0.209 µM). The MIC (M. pneumoniae ATCC 15492; [11]) was 0.1 µg/mL (≈ 0.209 µM), the MIC [2] was 0.05 µg/mL (≈ 0.104 µM) and the MIC (M. suipneumoniae HR(2); [12]) was 0.1 µg/mL (≈ 0.209 µM). It also gave an MIC [3] of 0.05 µg/mL (≈ 0.104 µM), an MIC (E. Coli E1; [13]) of 40 µg/mL (≈ 83.4 µM) and an MIC (M. hyorhinis ATCC 25021) of 0.05 µg/mL (≈ 0.104 µM). It also gave an MIC (E. Coli NCTC 10418; [14]) of 25 µg/mL (≈ 52.1 µM), an MIC (Staph. aureus Russell; [15]) of 0.5 µg/mL (≈ 1.04 µM) and an MIC (Bacillus subtilis 6633; [16]) of 0.5 µg/mL (≈ 1.04 µM). For the same molecule, the MIC (P. mirabilis 889; [17]) was 100 µg/mL (≈ 209 µM), the MIC [4, 18] was greater than 100 µg/mL and the MIC [5, 19] was 0.1 µg/mL (≈ 0.209 µM). The MIC [6, 20] was greater than 100 µg/mL, the MIC (K. aerogenes A; [21]) was 100 µg/mL (≈ 209 µM) and the MIC (Staph. aureus W2827; [22]) was 0.5 µg/mL (≈ 1.04 µM). For the same molecule, the MIC (Sarcina lutea 8340; [23]) was greater than 100 µg/mL, the MIC (Strep. pneumoniae CN33; [24]) was 0.1 µg/mL (≈ 0.209 µM) and the MIC ([7]; R80/421A, 18 h) was 0.25 µg/mL (≈ 0.521 µM). For the same molecule, the MIC (E. coli ESS; [25]) was 0.5 µg/mL (≈ 1.04 µM), the MIC (Staph. aureus Oxford; [26]) was 0.5 µg/mL (≈ 1.04 µM) and the MIC [8, 27] was 0.5 µg/mL (≈ 1.04 µM). It also gave an MIC (Strep. faecalis 1; [28]) of 50 µg/mL (≈ 104 µM), an MIC [9] of less than 0.01 µg/mL and an MIC (M. suipneumoniae JF 435; [29]) of 0.1 µg/mL (≈ 0.209 µM).
`C/C(=C\C(=O)OC(C)c1ccc([N+](=O)[O-])cc1)CC1OCC(CC2OC2C(C)C(C)O)C(O)C1O` (centres unmarked) [Example 4, 1-(p-nitrophenyl)ethyl monate A] was tested, and the MIC [1] was 1 µg/mL (≈ 2.03 µM), the MIC (M. bovis RCTC 10131) was 0.025 µg/mL (≈ 0.0507 µM) and the MIC (M. suipneumoniae OCD 1) was 1 µg/mL (≈ 2.03 µM). The MIC (M. pneumoniae ATCC 15492; [11]) was 10 µg/mL (≈ 20.3 µM), the MIC [2] was 1 µg/mL (≈ 2.03 µM) and the MIC (M. suipneumoniae HR(2); [12]) was 2.5 µg/mL (≈ 5.07 µM). The MIC ([3]; M. suipneumoniae NCTC 10110, in vitro, 6 days 37° C., read-out: MIC) was 2.5 µg/mL (≈ 5.07 µM), the MIC (E. Coli E1; [13]) was greater than 80 µg/mL and the MIC (M. hyorhinis ATCC 25021) was 0.5 µg/mL (≈ 1.01 µM). The MIC (E. Coli NCTC 10418; [14]) was greater than 100 µg/mL, the MIC (Staph. aureus Russell; [15]) was 2.5 µg/mL (≈ 5.07 µM) and the MIC (Bacillus subtilis 6633; [16]) was 1 µg/mL (≈ 2.03 µM). The MIC (P. mirabilis 889; [17]) was greater than 100 µg/mL, the MIC [4, 18] was greater than 100 µg/mL and the MIC [5, 19] was 1 µg/mL (≈ 2.03 µM). For the same molecule, the MIC [6, 20] was greater than 100 µg/mL, the MIC (K. aerogenes A; [21]) was greater than 100 µg/mL and the MIC (Staph. aureus W2827; [22]) was 2.5 µg/mL (≈ 5.07 µM). For the same molecule, the MIC ([10]; Neisseria catarrhalis 1502, nutrient agar 5% chocolated horse blood, 18 hours 37° C., read-out: MIC) was 0.5 µg/mL (≈ 1.01 µM), the MIC (Sarcina lutea 8340; [23]) was greater than 100 µg/mL and the MIC (Strep. pneumoniae CN33; [24]) was 1 µg/mL (≈ 2.03 µM). For the same molecule, the MIC ([7]; Strep. pyogenes R80/421-A, nutrient agar 5% chocolated horse blood, 18 hours 37° C., read-out: MIC) was 1 µg/mL (≈ 2.03 µM), the MIC (E. coli ESS; [25]) was 2.5 µg/mL (≈ 5.07 µM) and the MIC (Staph. aureus Oxford; [26]) was 2.5 µg/mL (≈ 5.07 µM). It also gave an MIC [8, 27] of 10 µg/mL (≈ 20.3 µM), an MIC (Strep. faecalis 1; [28]) greater than 100 µg/mL and an MIC ([9]; M. hyosynoviae ATOC 25591, in vitro, 6 days 37° C., read-out: MIC) of 0.1 µg/mL (≈ 0.203 µM). It also gave an MIC (M. suipneumoniae JF 435; [29]) of 2.5 µg/mL (≈ 5.07 µM).
Molecule `C/C(=C\C(=O)OCc1cc([N+](=O)[O-])cc([N+](=O)[O-])c1)CC1OCC(CC2OC2C(C)C(C)O)C(O)C1O` (centres unmarked) [Example 6, 3,5-dinitrobenzyl monate A] has an MIC [1] of 0.025 µg/mL (≈ 0.0477 µM), an MIC (M. bovis RCTC 10131) of no more than 0.01 µg/mL and an MIC (M. suipneumoniae OCD 1) of 0.05 µg/mL (≈ 0.0953 µM). It also gave an MIC (M. pneumoniae ATCC 15492) of 2.5 µg/mL (≈ 4.77 µM), an MIC [2] of 0.05 µg/mL (≈ 0.0953 µM) and an MIC (M. suipneumoniae HR(2)) of 0.05 µg/mL (≈ 0.0953 µM). It also gave an MIC [3] of 0.05 µg/mL (≈ 0.0953 µM), an MIC (E. Coli E1; 18 h) of 80 µg/mL (≈ 153 µM) and an MIC (M. hyorhinis ATCC 25021) of 0.025 µg/mL (≈ 0.0477 µM). For the same molecule, the MIC (E. Coli NCTC 10418; NCTC10418, 18 h) was 100 µg/mL (≈ 191 µM), the MIC (Staph. aureus Russell; 18 h) was 1 µg/mL (≈ 1.91 µM) and the MIC (Bacillus subtilis 6633; Bacillus subtilis, 6633, 18 h) was 0.5 µg/mL (≈ 0.953 µM). It also gave an MIC (P. mirabilis 889; Proteus mirabilis, 889, 18 h) of 100 µg/mL (≈ 191 µM), an MIC ([4]; Corynebacterium xerosis, 9755, 18 h) greater than 100 µg/mL and an MIC ([5]; Haemophilus influenzae, Q1, 18 h) of 0.5 µg/mL (≈ 0.953 µM). For the same molecule, the MIC ([6]; NCTC10662, 18 h) was greater than 100 µg/mL, the MIC (K. aerogenes A; 18 h) was 100 µg/mL (≈ 191 µM) and the MIC (Staph. aureus W2827; W2827, 18 h) was 1 µg/mL (≈ 1.91 µM). For the same molecule, the MIC ([10]; Neisseria, 1502, 18 h) was less than 0.025 µg/mL, the MIC (Sarcina lutea 8340; Micrococcus luteus, 8340, 18 h) was greater than 100 µg/mL and the MIC (Strep. pneumoniae CN33; CN33, 18 h) was 0.25 µg/mL (≈ 0.477 µM). For the same molecule, the MIC ([7]; R80/421A, 18 h) was 0.25 µg/mL (≈ 0.477 µM), the MIC (E. coli ESS; 18 h) was 1 µg/mL (≈ 1.91 µM) and the MIC (Staph. aureus Oxford; 18 h) was 0.5 µg/mL (≈ 0.953 µM). For the same molecule, the MIC ([8]; Pasteurella multocida, 1633, 18 h) was 0.5 µg/mL (≈ 0.953 µM), the MIC (Strep. faecalis 1; Enterococcus faecalis, 1, 18 h) was greater than 100 µg/mL and the MIC [9] was 0.025 µg/mL (≈ 0.0477 µM). For the same molecule, the MIC (M. suipneumoniae JF 435) was 0.05 µg/mL (≈ 0.0953 µM).
